Data on 9 compounds can be found in PMC9516332 (Frontiers in Oncology, 2022).

Common to all, as to test: Kinase panel profiling at 1 µmol/L (MSA or IMAP), percentage inhibition
What all share (assay type): biochemical

The target in test [1] is T1, panel of 255 wild-type kinases (Homo sapiens, UniProt O00418).
T1 sequence (O00418 1-725): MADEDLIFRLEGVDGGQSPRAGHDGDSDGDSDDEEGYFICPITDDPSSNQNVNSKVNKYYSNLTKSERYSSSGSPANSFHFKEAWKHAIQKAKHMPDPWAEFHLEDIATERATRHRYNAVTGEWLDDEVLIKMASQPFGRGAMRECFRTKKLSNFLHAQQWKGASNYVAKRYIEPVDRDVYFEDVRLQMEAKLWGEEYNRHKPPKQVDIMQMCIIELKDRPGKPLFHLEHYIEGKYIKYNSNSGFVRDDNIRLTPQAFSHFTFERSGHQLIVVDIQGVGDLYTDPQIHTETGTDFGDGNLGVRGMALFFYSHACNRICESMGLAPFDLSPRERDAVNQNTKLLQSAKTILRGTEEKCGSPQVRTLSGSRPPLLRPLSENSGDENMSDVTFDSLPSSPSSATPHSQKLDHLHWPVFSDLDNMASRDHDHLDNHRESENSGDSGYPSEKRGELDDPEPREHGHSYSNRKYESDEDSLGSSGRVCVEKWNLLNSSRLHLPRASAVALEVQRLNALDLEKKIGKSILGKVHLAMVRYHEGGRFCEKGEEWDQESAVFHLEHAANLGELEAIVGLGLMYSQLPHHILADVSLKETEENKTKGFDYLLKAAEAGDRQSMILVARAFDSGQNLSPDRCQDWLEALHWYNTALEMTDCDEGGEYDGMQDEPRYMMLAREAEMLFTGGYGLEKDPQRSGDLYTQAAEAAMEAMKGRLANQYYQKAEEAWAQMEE
The note with it: read-out: %-inhibition at 1 µmol/L, EEF2K.

Test [2] addresses panel of 255 wild-type kinases (Homo sapiens, UniProt P22607). The note with it: read-out: %-inhibition at 1 µmol/L, FGFR3.
For test [3], the target named is panel of 255 wild-type kinases (Homo sapiens, UniProt P24941).
Test [4] addresses T2, panel of 255 wild-type kinases (Homo sapiens, UniProt P41743).
T2 sequence (P41743 1-596): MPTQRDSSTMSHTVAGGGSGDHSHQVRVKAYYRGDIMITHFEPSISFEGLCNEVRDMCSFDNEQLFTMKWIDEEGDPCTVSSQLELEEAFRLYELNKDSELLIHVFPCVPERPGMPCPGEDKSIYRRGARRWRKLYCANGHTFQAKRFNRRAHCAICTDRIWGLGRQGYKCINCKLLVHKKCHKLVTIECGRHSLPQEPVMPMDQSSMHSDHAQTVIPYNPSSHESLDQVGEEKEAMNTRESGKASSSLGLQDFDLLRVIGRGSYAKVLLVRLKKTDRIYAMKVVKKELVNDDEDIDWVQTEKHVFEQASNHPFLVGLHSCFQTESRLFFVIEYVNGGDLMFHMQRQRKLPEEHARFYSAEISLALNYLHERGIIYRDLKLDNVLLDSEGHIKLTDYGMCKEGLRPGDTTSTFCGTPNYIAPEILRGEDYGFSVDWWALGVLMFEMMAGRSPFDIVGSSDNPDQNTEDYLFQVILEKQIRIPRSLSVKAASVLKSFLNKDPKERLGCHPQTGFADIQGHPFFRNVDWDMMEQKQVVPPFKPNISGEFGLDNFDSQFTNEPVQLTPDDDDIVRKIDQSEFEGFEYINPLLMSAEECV
The note with it: read-out: %-inhibition at 1 µmol/L, PKCι.

The target of test [5] is panel of 255 wild-type kinases (Homo sapiens, UniProt P48730). The note with it: read-out: %-inhibition at 1 µmol/L, CK1δ.
Test [6] deals with panel of 255 wild-type kinases (Homo sapiens, UniProt P49840). The note with it: read-out: %-inhibition at 1 µmol/L, GSK3α.
Test [7] concerns the target panel of 255 wild-type kinases (Homo sapiens, UniProt Q13627). As to conditions: read-out: %-inhibition at 1 µmol/L, DYRK1A.
Test [8] addresses T3, panel of 255 wild-type kinases (Homo sapiens, UniProt Q96L34).
T3 sequence (Q96L34 1-752): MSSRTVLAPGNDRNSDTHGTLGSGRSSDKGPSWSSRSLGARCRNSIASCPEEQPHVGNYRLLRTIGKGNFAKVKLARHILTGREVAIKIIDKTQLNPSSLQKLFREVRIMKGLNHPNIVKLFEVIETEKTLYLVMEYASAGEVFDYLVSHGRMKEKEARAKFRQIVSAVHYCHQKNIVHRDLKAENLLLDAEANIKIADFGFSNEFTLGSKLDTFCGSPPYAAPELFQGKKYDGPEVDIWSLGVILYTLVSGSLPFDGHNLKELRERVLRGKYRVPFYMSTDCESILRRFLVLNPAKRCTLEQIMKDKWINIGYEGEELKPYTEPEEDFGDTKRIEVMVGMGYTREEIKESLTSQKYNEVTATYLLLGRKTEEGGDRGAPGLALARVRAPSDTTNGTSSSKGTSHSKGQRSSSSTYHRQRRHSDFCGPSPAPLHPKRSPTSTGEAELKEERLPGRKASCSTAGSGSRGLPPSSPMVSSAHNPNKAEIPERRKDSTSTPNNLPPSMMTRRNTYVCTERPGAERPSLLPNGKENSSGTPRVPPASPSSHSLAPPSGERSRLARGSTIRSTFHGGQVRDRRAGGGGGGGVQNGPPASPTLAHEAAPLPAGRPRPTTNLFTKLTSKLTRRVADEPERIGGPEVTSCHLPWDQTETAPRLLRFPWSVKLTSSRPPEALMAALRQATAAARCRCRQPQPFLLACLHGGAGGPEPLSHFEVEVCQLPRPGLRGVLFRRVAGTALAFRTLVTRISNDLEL
The note with it: read-out: %-inhibition, MARK4.

In test [9] the target is panel of 255 wild-type kinases (Homo sapiens, UniProt Q9H422). As to conditions: read-out: %-inhibition at 1 µmol/L, HIPK3.
The mark [10] stands for this setting: kinase EEF2K, 1 µmol/L single concentration.
Setting [11] is: kinase FGFR3, 1 µmol/L single concentration.
[12] abbreviates: CDK2/CycA2 kinase assay, 1 µmol/L single concentration, read-out: %-inhibition CDK2/CycA2.
[13] abbreviates: CDK2/CycE1 kinase assay, 1 µmol/L single concentration, read-out: %-inhibition CDK2/CycE1.
Where [14] appears, read: kinase PKCι, 1 µmol/L single concentration.
The mark [15] stands for this setting: kinase CK1δ, 1 µmol/L single concentration.
[16] abbreviates: kinase GSK3α, 1 µmol/L single concentration.
The mark [17] stands for this setting: kinase DYRK1A, 1 µmol/L single concentration.
Setting [18] is: MARK4, 1 µmol/L single concentration.
The mark [19] stands for this setting: kinase HIPK3, 1 µmol/L single concentration.

Like-named read-outs stand apart in the source and are kept apart here.

As for `Cc1nc(NC(=O)N2CCC[C@H]2C(N)=O)sc1-c1ccnc(C(C)(C)C(F)(F)F)c1` [alpelisib], the inhibition at 1 µM in [1] (setting [10]) is 2%; in test [2] (setting [11]), 3.39%; in [3] (setting [12]), -2.39%; in [3] (setting [13]), -10%; in [4] (setting [14]), 21%; in test [5] (setting [15]), 9%. In addition, the inhibition at 1 µM was -2.64% in [6] (setting [16]), 6% in [7] (setting [17]), 0.414% in test [8] (setting [18]) and 7% in test [9] (setting [19]).
Take `Cn1cc(-c2cc3c(N4CCN(c5ncc([C@@](C)(N)c6ccc(F)cc6)cn5)CC4)ncnn3c2)cn1` [avapritinib]: the inhibition at 1 µM in test [1] (setting [10]) was -1.21%; in [2] (setting [11]), 41%; in test [3] (setting [12]), -0.664%; in [3] (setting [13]), -37%; in test [4] (setting [14]), 0.376%; in test [5] (setting [15]), 11%. The inhibition at 1 µM was 3% in test [6] (setting [16]), 57% in [7] (setting [17]), -5.63% in test [8] (setting [18]) and -0.071% in [9] (setting [19]).
In the case of `Cn1cnc2c(F)c(Nc3ccc(Br)cc3F)c(C(=O)NOCCO)cc21` [binimetinib], the inhibition at 1 µM in test [1] (setting [10]) was -6%; in test [2] (setting [11]), 1.4%; in [3] (setting [12]), 2.3%; in [3] (setting [13]), -14%; in test [4] (setting [14]) it was 15%; in test [5] (setting [15]) it was -4%. For the same compound, the inhibition at 1 µM in [6] (setting [16]) is -2.8%; in [7] (setting [17]), -8%; in test [8] (setting [18]), -4%; in test [9] (setting [19]) it was 0.0241%.
As for `CNC(=O)c1ccc(-c2cnc3ncc(Cc4ccc5ncccc5c4)n3n2)cc1F` [capmatinib], the inhibition at 1 µM is -0.629% in test [1]; 2% in test [2]; 1.63% in test [3] (read-out: %-inhibition CDK2/CycA2); -47% in test [3] (read-out: %-inhibition CDK2/CycE1); -10% in [4]; -1.78% in [5]. Also, the inhibition at 1 µM in [6] was -0.492%; in [7], -0.902%; in [8], 6%; in [9], -3%.
Turning to `COc1cc2ncnc(Nc3ccc(F)c(Cl)c3)c2cc1NC(=O)/C=C/CN1CCCCC1` [dacomitinib], the inhibition at 1 µM in [1] (setting [10]) is 0%; in test [2] (setting [11]) it was 26%; in test [3] (setting [12]) it was -13%; in [3] (setting [13]), -16%; in test [4] (setting [14]) it was 31%; in test [5] (setting [15]), -6.63%. The inhibition at 1 µM in test [6] (setting [16]) was 1.45%; in [7] (setting [17]), 9%; in test [8] (setting [18]), 4.31%; in test [9] (setting [19]), 3.75%.
Take `C[C@H](Nc1ncnc2nc[nH]c12)c1cc2cccc(Cl)c2c(=O)n1-c1ccccc1` [duvelisib]: the inhibition at 1 µM was 0.762% in test [1] (setting [10]); 0.29% in [2] (setting [11]); -0.854% in [3] (setting [12]); -11% in [3] (setting [13]); 18% in [4] (setting [14]); -4.49% in test [5] (setting [15]). Besides, the inhibition at 1 µM in [6] (setting [16]) is -1.9%; in test [7] (setting [17]), -3.48%; in [8] (setting [18]), 4.7%; in test [9] (setting [19]), 3.5%.
In the case of `COC(=O)N[C@@H](C)CNc1nccc(-c2cn(C(C)C)nc2-c2cc(Cl)cc(NS(C)(=O)=O)c2F)n1` [encorafenib], the inhibition at 1 µM is 1% in test [1] (setting [10]); 1% in [2] (setting [11]); 5.57% in [3] (setting [12]); -9% in test [3] (setting [13]); -1.18% in test [4] (setting [14]); 20% in test [5] (setting [15]). Further, the inhibition at 1 µM in test [6] (setting [16]) was 55%; in test [7] (setting [17]) it was 6%; in test [8] (setting [18]), 2.32%; in test [9] (setting [19]), 5.63%.
For `CN1CCN(c2ccc(C(=O)Nc3n[nH]c4ccc(Cc5cc(F)cc(F)c5)cc34)c(NC3CCOCC3)c2)CC1` [entrectinib], the inhibition at 1 µM was 3.25% in test [1] (setting [10]); 90% in [2] (setting [11]); 20% in [3] (setting [12]); 11% in test [3] (setting [13]); 34% in [4] (setting [14]); -5% in [5] (setting [15]). For the same compound, the inhibition at 1 µM in test [6] (setting [16]) was -0.424%; in test [7] (setting [17]), -3.18%; in [8] (setting [18]), 15%; in [9] (setting [19]) it was 5%.
For `CCc1nc(C(N)=O)c(Nc2ccc(N3CCC(N4CCN(C)CC4)CC3)c(OC)c2)nc1NC1CCOCC1` [gilteritinib], the inhibition at 1 µM was -2.72% in [1] (setting [10]); 76% in test [2] (setting [11]); 27% in [3] (setting [12]); 17% in test [3] (setting [13]); 28% in test [4] (setting [14]); 25% in test [5] (setting [15]). In addition, the inhibition at 1 µM in test [6] (setting [16]) is 7.48%; in test [7] (setting [17]), 18%; in test [8] (setting [18]), 53%; in [9] (setting [19]), 66%.
